Data: US11827663B2, “Use of UAP inhibitors to inhibit flux through the hexosamine biosynthetic pathway” (The Johns Hopkins University, priority 2014, dated 2023)

Legend:
[1] = test system: UDP-Glc/GalNAc (HexNAc), product of UAP1/2; test: Targeted metabolomics, LC-MS/MS of UDP-HexNAc in 612 cells; type: cell-based
Procedure: FIGS. 16A-16B show exemplary targeted metabolomics results from primary glioblastoma cells. […] (n=3, with error bars representing SEM;* indicates p<0.05)
In FIGS. 16A-16B, representative targeted metabolomics results from primary glioblastoma cells were quantitated using LC-MS/MS traces. For example, the 612 cells were treated with 50 μM or 100 μM of Ac4Glc2Bz or non-treated (control). Afterwards, the cell extracts were obtained using Bligh-Dyer extraction and the extracts were analyzed using LC-MS/MS. Twelve 150-mm tissue culture plates were coated with lamin (1 ug/cm^2) in PBS for 24 h. 5×10^6 612 cells were seed onto each plate in 20 mL of media for condition tested: DMSO vehicle control (2 plates) (matched to the volume of vehicle used for the 100 μM condition), 50 μM (4 plates), 100 μM (6 plates). Ater 48 h, the plates were cooled for 10 minutes on ice followed by aspiration of the media. The plates were then tilted at 30° for 30 seconds and any remaining media was removed. Plates were washed twice with 10 mL of ice cold PBS (calcium and magnesium ion free). Next, the plates were covered and chilled with dry ice for 10 minutes to completely freeze all of the cells. While freezing the cells, a solution of methanol:H2O (2:0.8) was made and chilled in an isopropyl alcohol-dry ice bath. The plates were transferred to wet ice and 500 μL of the MeOH:H2O solution was added to the plates. Cells were scraped and the were transferred to a 15 mL tube. 500 μL more of the methanol:H2O solution was added again, and any remaining cells were scraped off the plates and were transferred to the 15 mL tubes. Samples, while remaining cold, were sonicated 2-5 times for 1 s and 1 part of chloroform was added to produce a ration of 1:2:0.8 (CHCl3:MeOH:H2O). Samples were briefly vortexed while still cold and 1 part of H2O was added followed by vortexing. […] DNA quantity from the interphase disc was determined using a fluorescent assay (SIGMA). […] The aqeuous layers were combined after normazling reconstitutions to the quantities of DNA obtained for each condition tested. […]

[2] = test system: primary glioblastoma line GS1049; test: Cell count of primary glioblastoma line GS1049; type: cell-based; details: 48 h incubation, cell counting normalized to untreated controls; read-out: Estimated IC50 values, GS 1049
Procedure: FIG. 7A depicts the results of primary glioblastoma lines 612 and GS1049 after incubation for 48 h with Ac4Glc2Bz followed by cell counting and normalization to untreated controls. The data is log transformed to easily determine IC50 values. FIG. 7B and FIG. 7C depict the measurement of proliferation of the primary glioblastoma lines after 48 h incubation with Ac4Glc2Bz using a MTT assay.
Cells were incubated at a range of concentrations of the UAP inhibitors (typically at 0, 10, 25, 50, 100, and 150 μM) and the number of cells were quantified, typically by automated counting (e.g., with a Coulter Counter Z2 instrument) after 1, 2, 3, or 5 days of exposure.

For `CC(=O)OCC1OC(OC(C)=O)[C@@H](NC(=O)c2ccccc2)[C@@H](OC(C)=O)[C@@H]1OC(C)=O` (stereo partly shown) [Ac4Glc2Bz], the “LC-MS/MS peaks for UDP-HexNAc in treated cell extracts” value ([1]; 612 cells, 50 μM or 100 μM, 48 h) was “substantially lower”, the “reduction of quantitized amount of UDP-HexNAc, particularly UDP-GlcNAc, vs non-treated cell” value ([1]; 612 cells, 50 μM, 48 h) was ~4 fold and the “residual level of UDP-GlcNAc” value ([1]; printed as shown in FIGS. 18A-18B) was “about 25%”. It also gave an IC50 [2] of 88.8 ± 1.8 µM.
